Assay results taken from patent publication US7235548B2, “Compounds and their use as positive AMPA receptor modulators” (NeuroSearch A/S, priority 1998, dated 2007).

Test system: AMPA receptors
Assay: AMPA evoked single neuron spike activity in rat hippocampus (iontophoretic application of AMPA), in vivo
Settings: for AMPA evoked spike activity: rat hippocampus
Description: Evaluation of the in vivo effects of positive AMPA modulators (PAMs) on the AMPA evoked spike activity in rat hippocampus. Hippocampal single neuron spike activity is strongly influenced by excitatory input, and iontophoretic application of AMPA induces spike activity in vivo in a dose-dependent manner ([…] et al. 1998). […] PAMs potentate AMPA receptor activation in vitro, and if this mechanism also operates in vivo, the i.v. injection of an PAM should enhance AMPA evoked spike activity. Thus, the aim of this study was to test the in vivo effect of a group of in vitro active PAMs. This have been done by studying their ability to enhances AMPA evoked spike activity after i.v. administration. Experiments were performed on male Wistar rats (M & B, Denmark) weighing 280-380 g, housed in two per cage with free access to food and water. […] Additional anaesthetic was given i.v. if the rat responded to a pinch of the back foot. The trachea was cannulated and the rats were placed in a stereotaxic frame and ventilated by a rodent ventilator (Ugo Basile, Comerio-Varese, Italy). Core body temperature was maintained at 37.5° C. by a DC heating pad. The left and dorsal part of the parietal bone was removed by craniotomy and the dura was withdrawn exposing the pia mater and underlying brain, covered with 0.9% NaCl. AMPA (Sigma, USA) was dissolved at 10 mM in 0.2 M NaCl. NMDA (Sigma, USA) was dissolved at 100 mM in 100 mM NaCl. Both solutions were adjusted to pH 7.5-8.0 with NaOH. COMPOUND 61 was dissolved in 200 mM CH3SO3^- Na^+ at a contration of 10 mM for iontophoretic application ([…]) and in isotonic glucose (278 mM) for i.v. administration. Cyclothiazide, COMPOUND 63, COMPOUND 56, COMPOUND 115 and COMPOUND 114 were all dissolved at in 5% chremophore solution at a concentration of 5 mg ml^-1. Evoked neuronal spike activity was analyzed on-line by a computer, saving single spikes and time of event. Neuronal spike activity (number of action potentials s^-1) was monitored on a pulse rate histogram together with indicators for AMPA, COMPOUND 61 and vehicle application. Extracellular recordings of single hippocampal neuron spikes were made with five-barrel glass microelectrodes (5B120F-6, World Precision Instruments Inc., Sarasota, Fla., USA) with a tip diameter of 10-12 μm. The individual barrels were filled with 5 M NaCl (recording), 400 mM NaCl (current balancing), 10 mM COMPOUND 61 in 200 mM CH3SO3^- Na^+ (pH 4.7), 200 mM CH3SO3^- Na^+ (pH 4.7, Vehicle), and the last barrel was filled with the AMPA. Experiments were performed on hippocampal neurons (A=5.5-6.5 mm, L=1.5-2.0 mm, H=2.0-3.0 mm, according to Paxinos & Watson, 1986). Neuronal spike activity was evoked by iontophoretic application of AMPA for periods of 10 to 15 s with 1.5 min intervals. Single neuron spike activity was amplified 5000 times with a bandwidth of 0.3 and 3 kHz (CyberAmp 320 with a Al 402 x50 smartprobe, Axon Instruments, California, USA). On-line and off-line analyses were performed by the Spike2 program with a 1401 plus interface (Cambridge Electronic Design Limited, England). The computer program also recorded mean arterial blood pressure and monitored and controlled iontophoretic application. AMPA was ejected into hippocampus in regular cycles of 100-105 s. […] Recording of neuronal spike activity was continued for at least 45 min after intravenous injection. The PAM reactivity was tested by microiontophoretic application of COMPOUND 61 (20 nA, FIG.).

O=S1(=O)NC(C2CCCCC2)Nc2ccc(S(=O)(=O)N3CCOCC3)cc21 (centres unmarked) [Compound 63, 3-Cyclohexyl-7-morpholinosulfonyl-1,2,3,4-tetrahydro-1,2,4-benzothiadiazine-1,1-dioxide]
initial effect on the AMPA responses (10 mg kg^−1 i.v., before onset of enhancement): initial inhibition | large AMPA responses, evoked by high intensity AMPA stimulation (10 mg kg^−1 i.v., high intensity AMPA (17 nA)): only marginal effect | small AMPA responses, evoked by low intensity AMPA stimulation (10 mg kg^−1 i.v., low intensity AMPA (12 nA)): enhanced

Cc1cc2c(cc1S(=O)(=O)N1CCCCC1)S(=O)(=O)NC(C1CCCC1)N2 (centres unmarked) [Compound 114, 3-Cyclopentyl-6-methyl-7-piperidinosulfonyl-1,2,3,4-tetrahydro-1,2,4-benzothia-diazine-1,1-dioxide]
AMPA evoked spike activity (10 mg kg^−1 i.v.): enhanced | increase of the AMPA responses (10 mg kg^−1 i.v., control level of the AMPA responses low, FIG. 15): 10 fold | AMPA response after administration (10 mg kg^−1 i.v., larger control responses, from 124, FIG. 16): 204 spikes response^−1 | enhancement of the AMPA responses (10 mg kg^−1 i.v., larger control responses, FIG. 16): approximately doubled | AMPA response after administration, mean response (10 mg kg^−1 i.v., low control level, from 21, FIG. 15): 209 spikes response^−1

Cc1cc2c(cc1S(=O)(=O)N1CCOCC1)S(=O)(=O)NC(C1CCCCC1)N2 (centres unmarked) [Compound 115, 3-Cyclohexyl-6-methyl-7-morpholinosulfonyl-1,2,3,4-tetrahydro-1,2,4-benzothiadiazine-1,1-dioxide]
onset of the enhancement after i.v. administration (10 mg kg^−1 i.v.): 2 min | AMPA evoked spike activity (10 mg kg^−1 i.v.): enhancement

CN1CCN(S(=O)(=O)c2ccc3c(c2)S(=O)(=O)NC(C2CCCCC2)N3)CC1 (centres unmarked) [Compound 61, 3-Cyclohexyl-7-(4′-methylpiperazino)sulfonyl-1,2,3,4-tetrahydro-1,2,4-benzothiadiazine-1,1-dioxide]
onset of the enhancement after i.v. administration (10 mg kg^−1 i.v.): 20 min | AMPA evoked spike activity (10 mg kg^−1 i.v.): enhanced | increase in AMPA evoked spike activity (10 mg kg^−1 i.v., FIG. 14): 3 fold | AMPA evoked spike activity (iontophoretic application of the compound (20 nA)): enhanced
